In PMC12051620, “Molecular basis underlying the specificity of an antagonist AA92593 for mammalian melanopsins” (The Journal of Biological Chemistry, 2025):

What was measured:
[1] = system: Xenopus Opn4x L207^5.42F mutant; experiment: GsX GloSensor assay with Gsα/q11; format: cell-based; conditions: 16.7 μM AA92593, COS-1 cells
Description: (§1) Similar to human and mouse melanopsins (Fig. 5, F and H, I, M, and N), the introduction of a Phe residue at position 207^5.42 in Xenopus Opn4x and Chicken Opn4-1 increased their susceptibility of the melanopsins for AA92593 by ∼53% and ∼37%, respectively, although the substitutions reduced light-dependent cAMP responses by the melanopsins (Fig. 6, C and F, G and H). […]
(§2) For GloSensor assay, opsins, GloSensor assay sensor (coded by pGlo-22F), and NanoBiT-tagged G proteins were transiently expressed in COS-1 cells (kindly provided from Dr David Farrens, Oregon Health and Science University) using PEI as described previously ([24], [52]). […] For GFP-fluorescence microscopy, a 35-mm cell culture dish (IWAKI) was transfected with 2 μg melanopsin-GFP plasmid and 8 μg PEI in 400 μl Opti-mem and 1.2 ml D-MEM. […]
(§3) The transfected COS-1 cells were incubated at 37 °C, 5% CO2 for 2 days, and the medium was aspirated and exchanged with 50 μl of HBSS (145 mM NaCl, 10 mM D-glucose, 5 mM KCl, 1 mM MgCl2, 1.7 mM CaCl2, 1.5 mM NaHCO3, 10 mM Hepes, pH 7.4), containing 33.3, 20, 10, 2, 0.2, 0.02, 0.002, or 0 μM AA92593, 0.5% dimetyl sulfoxide (DMSO), and 4% (vol/vol) GloSensor cAMP reagent stock solution. […] Then, the cells were incubated at room temperature for 1 h, and luminescence changes were monitored. […] Luminescence was measured using GM-2000 or GM-3510 microplate reader (Promega). […]

[2] = system: chicken Opn4-1 L207^5.42F mutant; experiment: GsX GloSensor assay with Gsα/q11; format: cell-based; conditions: 16.7 μM AA92593, COS-1 cells
Description: as §1, §2, §3

Compound: COc1ccc(S(=O)(=O)N2CCCCC2)cc1C [AA92593]
- increase in susceptibility for AA92593 vs WT [1]: ~53%
- increase in susceptibility for AA92593 vs WT [2]: ~37%
